Test results taken from US20250197425A1, “2,6,9-TRISUBSTITUTED PURINES” (ASTRAZENECA AB, priority 2022, published 2025).
Converted amounts (≈) assume the structure as drawn.

How the values were obtained:
[1] = system: POLR2A Ser2 phosphorylation (CDK9); test: POLR2A Ser2 phosphorylation imaging assay in MCF-7 cells; assay type: cell-based; conditions: Homo sapiens, MCF7, 2 h, MCF-7 cells, 2 hours; read-out: POLR2A Ser2 phosphorylation IC50
How it was run: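 MCF-7 cells were fixed, permeabilised and immunostained for POLR2A phospho-Ser2, then imaged by high-content microscopy. Levels were normalised to controls and IC50 values derived.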

MCF-7 cells = test: Cellular proliferation EdU assay, MCF-7; assay type: cell-based; conditions: Homo sapiens, MCF7, 48 h, EdU assay, two days; read-out: MCF-7 IC50
How it was run: (§1)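 MCF-7 (800 cells/well) and OVCAR3 (1200 cells/well) in RPMI with 10% FBS exposed to compounds for two days at 37 °C.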

OVCAR3 cells = test: Cellular proliferation EdU assay, OVCAR3; assay type: cell-based, human; conditions: Homo sapiens, OVCAR-3, 48 h, EdU assay, two days; read-out: OVCAR3 IC50
How it was run: as §1

[2] = molecular target: 379 non-CDK kinase (or non-CDK kinase-complex) targets; test: Kinase profiling (SelectScreen, ThermoFisher); assay type: biochemical; conditions: compared with Compound 6
Text: Test compounds were profiled against a broad panel of kinases at ThermoFisher Scientific using the SelectScreen Kinase Profiling Services. Each kinase assay used one of the following assay technology protocols: • 1) Z-LYTE™ Screening Protocol and Assay Conditions (Revised 23 Jan. 2018 version) available at http://assets.thermofisher.com/TFS-Assets/BID/Methods-&-Protocols/20180123_SSBK_Customer_Protocol_and_Assay_Conditions.pdf; • 2) Adapta™ Screening Protocol and Assay Conditions (Revised 23 Jan. 2018 version) available at http://assets.thermofisher.com/TFS-Assets/BID/Methods-&-Protocols/20180123_SSBK_Adapta_Customer_Protocol_and_Assay_Conditions.pdf; or • 3) LanthaScreen™ Eu Kinase Binding Assay Screening Protocol and Assay Conditions (Revised 23 Jan. 2018 version) available at http://assets.thermofisher.com/TFS-Assets/BID/Methods-&-Protocols/20180123_SSBK_LanthaScreen_Binding_Customer_Protocol_and_Assay_Co nditions.pdf.

CDK2:CCNE1 = CDK2:CCNE1 (Homo sapiens (Human), UniProt P24941); test: NanoBRET assay in MCF-7 cells, CDK2; assay type: cell-based; conditions: transfected MCF-7 cells, 2 hours, n = 1 or average
How it was run: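 In live MCF-7 cells, compound added followed by NanoBRET TE Tracer K-9 (stock 200 μM) for CDK2, 2 h at 37° C, 5% CO2.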

CDK1:CCNB1 = CDK1:CCNB1 (Homo sapiens (Human), UniProt P06493); test: NanoBRET assay in MCF-7 cells, CDK1; assay type: cell-based; conditions: NanoBRET, transfected MCF-7 cells, 2 hours; n = 1 or average; read-out: CDK1 IC50
Sequence of CDK1:CCNB1 (P06493 whole entry): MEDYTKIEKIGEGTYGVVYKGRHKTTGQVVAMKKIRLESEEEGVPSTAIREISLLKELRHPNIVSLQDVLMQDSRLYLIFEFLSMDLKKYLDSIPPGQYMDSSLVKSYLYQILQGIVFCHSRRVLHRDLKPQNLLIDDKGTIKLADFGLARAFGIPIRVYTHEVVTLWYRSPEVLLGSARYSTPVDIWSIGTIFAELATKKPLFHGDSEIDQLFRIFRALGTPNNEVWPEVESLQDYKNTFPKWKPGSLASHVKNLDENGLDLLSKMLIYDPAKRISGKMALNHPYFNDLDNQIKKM
Sequence of CDK1:CCNB1 (P14635 whole entry partner): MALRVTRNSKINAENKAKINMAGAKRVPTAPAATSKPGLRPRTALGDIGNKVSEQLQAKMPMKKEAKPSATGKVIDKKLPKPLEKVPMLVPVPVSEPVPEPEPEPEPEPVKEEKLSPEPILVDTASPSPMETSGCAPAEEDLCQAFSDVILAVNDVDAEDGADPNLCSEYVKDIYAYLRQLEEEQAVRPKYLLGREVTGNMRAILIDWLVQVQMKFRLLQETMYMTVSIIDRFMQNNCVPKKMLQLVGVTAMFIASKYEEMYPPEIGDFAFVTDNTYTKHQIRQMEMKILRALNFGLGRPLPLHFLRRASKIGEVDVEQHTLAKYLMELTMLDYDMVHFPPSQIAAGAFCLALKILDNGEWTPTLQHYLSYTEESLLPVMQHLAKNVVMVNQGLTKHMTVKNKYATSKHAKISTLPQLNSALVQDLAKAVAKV
How it was run: (§2)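 Intracellular target engagement was measured by NanoBRET ratio (460 nm/610 nm) in live MCF-7 cells transiently carrying CDK4:CCND1 (Tracer K-7, 100 μM stock) or CDK1:CCNB1 (Tracer K-9, 400 μM stock).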

CDK4:CCND1 = CDK4:CCND1 (Homo sapiens (Human), UniProt P11802); test: NanoBRET assay in MCF-7 cells, CDK4; assay type: cell-based; conditions: NanoBRET, transfected MCF-7 cells, 2 hours; n = 1 or average; read-out: CDK4 IC50
Sequence of CDK4:CCND1 (P11802 whole entry): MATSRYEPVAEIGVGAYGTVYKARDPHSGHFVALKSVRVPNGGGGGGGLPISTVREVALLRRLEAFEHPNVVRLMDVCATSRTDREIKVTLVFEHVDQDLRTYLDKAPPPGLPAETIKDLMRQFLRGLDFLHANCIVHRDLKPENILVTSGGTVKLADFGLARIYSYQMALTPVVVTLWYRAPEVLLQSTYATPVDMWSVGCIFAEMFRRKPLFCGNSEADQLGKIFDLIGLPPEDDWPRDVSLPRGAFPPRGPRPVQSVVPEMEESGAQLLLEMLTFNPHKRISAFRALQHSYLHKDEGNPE
Sequence of CDK4:CCND1 (P24385 whole entry partner): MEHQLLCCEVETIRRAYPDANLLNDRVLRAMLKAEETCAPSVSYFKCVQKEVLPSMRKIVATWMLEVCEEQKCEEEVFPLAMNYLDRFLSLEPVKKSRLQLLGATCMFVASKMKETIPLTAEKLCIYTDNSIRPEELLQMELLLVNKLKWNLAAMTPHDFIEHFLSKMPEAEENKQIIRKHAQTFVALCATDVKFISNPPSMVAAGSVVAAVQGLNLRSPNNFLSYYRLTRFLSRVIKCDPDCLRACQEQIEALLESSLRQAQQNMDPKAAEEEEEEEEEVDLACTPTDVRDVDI
How it was run: as §2

[3] = system: NPM phosphorylation (Thr199, CDK2-cyclin E complex); test: NPM phosphorylation imaging assay in MCF-7 cells; assay type: cell-based; conditions: Homo sapiens, 4N DNA cells
How it was run: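 MCF-7 cells were fixed, permeabilised and immunostained, then imaged for phospho-NPM (Thr199), a CDK2-cyclin E site. Analysis was gated on 4N-DNA cells by Hoechst staining. Signals were normalised to controls and fitted for IC50.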

[4] = CLint assessment in human liver microsomes (HLM); assay type: in vitro ADME; conditions: 1 μM
How it was run: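 Microsomes preincubated 8 min with NADPH, then compound added and incubated 30 min at 37° C. Remaining compound measured by LC-MS/MS. t1/2 and CLint calculated, with CLint scaled to incubation volume per mg microsomal protein.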

[5] = Aqueous thermodynamic solubility, shake-flask; assay type: physicochemical; conditions: aqueous phosphate buffer, 25 °C, pH 7.4, aqueous buffer, thermodynamic from solid, phosphate buffer 0.1 M, pH 7.4, 24 hours
How it was run: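 After 24 h stirring at 25° C. in pH 7.4 phosphate buffer (0.1 M), solid-free supernatant from two centrifugations was quantified by UPLC/MS/MS after dilution in water. Compound was added as dried material after DMSO removal.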

Row | Structure (SMILES) | IC50 [1] [µM] | IC50 (MCF-7 cells) [µM] | IC50 (OVCAR3 cells) [µM] | IC50 (CDK2:CCNE1) [µM] | IC50 (CDK1:CCNB1) [µM] | IC50 (CDK4:CCND1) [µM] | HLM CLint [4] [µL/min/mg] | solubility at 24 h [5] [µM] | IC50 ([3]; MCF7, 2 h) [µM] | kinase inhibition profile [2] | IC50 ([3]; MCF7, 2 hours) [µM]
1 | CC(C)[C@H](CO)Nc1nc(N[C@H]2C[C@H](C)N(S(C)(=O)=O)C2)c2ncn(C(C)C)c2n1 [Example 35, (R)-2-((9-isopropyl-6-(((3S,5S)-5-methyl-1-(methylsulfonyl)-pyrrolidin-3-yl)amino)-9H-purin-2-yl)amino)-3-methylbutan-1-ol] | > 30 | 3.33 | 1.62 | 0.052 | 6.08 | 11.2 | >300 | 26.4 (≈ 11.6 µg/mL) |  |  | 1.22
2 | CC(C)[C@H](CO)Nc1nc(N[C@@H]2CN(S(C)(=O)=O)C[C@H]2C)c2ncn(C(C)C)c2n1 [Example 36, (R)-2-((9-isopropyl-6-(((3S,4R)-4-methyl-1-(methylsulfonyl)-pyrrolidin-3-yl)amino)-9H-purin-2-yl)amino)-3-methylbutan-1-ol] | > 30 | 3.01 | 1.25 | 0.05 | 2.02 | > 29.7 | >300 | 11.1 (≈ 4.88 µg/mL) |  |  | 1.23
3 | CC[C@H](Nc1nc(N[C@H]2C[C@@H](C)N(S(C)(=O)=O)C2)c2ncn(C(C)C)c2n1)[C@@H](C)O [Example 37, (2R,3S)-3-((9-isopropyl-6-(((3S,5R)-5-methyl-1-(methylsulfonyl)-pyrrolidin-3-yl)amino)-9H-purin-2-yl)amino)pentan-2-ol] | > 30 | 2.79 | 1.3 | 0.061 | 4.59 | > 29.7 | 143 | 414 (≈ 182 µg/mL) |  |  | 0.879
4 | CCn1cnc2c(N[C@H]3CCN(S(C)(=O)=O)C3)nc(N[C@@H](CO)C3CC3)nc21 [Example 39, (R)-2-cyclopropyl-2-((9-ethyl-6-(((S)-1-(methylsulfonyl)pyrrolidin-3-yl)amino)-9H-purin-2-yl)amino)ethanol] | > 30 | 0.658 | 0.288 |  |  |  |  |  |  | broadly similar kinase inhibition profiles to Compound 6 | 
5 | CCn1cnc2c(N[C@H]3CCN(S(=O)(=O)CF)C3)nc(N[C@@H](CO)C(C)C)nc21 [Example 43, (R)-2-((9-ethyl-6-(((S)-1-(fluoromethylsulfonyl)pyrrolidin-3-yl)-amino)-9H-purin-2-yl)amino)-3-methylbutan-1-ol] | > 30 | 0.328 | 0.291 | 0.011 | 0.557 | 5.2 | 148 | 97.2 (≈ 41.7 µg/mL) | 0.15 |  | 
6 | CC[C@H](Nc1nc(N[C@H]2CCN(S(=O)(=O)NC)C2)c2ncn(CC)c2n1)C(C)(C)O [Example 46, (S)-3-((9-ethyl-2-(((S)-2-hydroxy-2-methylpentan-3-yl)amino)-9H-purin-6-yl)amino)-N-methylpyrrolidine-1-sulfonamide] | > 30 | 3.17 | 1.37 | 0.192 | 8.37 | 23.7 | 76.6 | > 1000 |  |  | 1.17
7 | CC[C@@H](CO)Nc1nc(N[C@H]2CCN(S(=O)(=O)NC)C2)c2ncn(CC)c2n1 [Example 48, (S)-3-((9-ethyl-2-(((S)-1-hydroxybutan-2-yl)amino)-9H-purin-6-yl)-amino)-N-methylpyrrolidine-1-sulfonamide] | > 30 | 3.33 | 2.35 | 0.123 | 5.55 | > 23.8 | 13.3 | > 1000 | 1.3 |  | 
8 | CCNS(=O)(=O)N1CC[C@H](Nc2cc(N[C@@H](CC)[C@@H](C)O)nc3c2ncn3CC)C1 [Example 60, (S)—N-ethyl-3-((3-ethyl-5-(((2R,3S)-2-hydroxypentan-3-yl)amino)-3H-imidazo[4,5-b]pyridin-7-yl)amino)pyrrolidine-1-sulfonamide] | 6.1 | 0.637 | 0.089 | 0.014 | 0.426 | 2.5 | 65.6 | 51.3 (≈ 22.6 µg/mL) | 0.064 |  | 

More lines, main results first:

Row | IC50 [1] [µM] | IC50 (MCF-7 cells) [µM] | IC50 (OVCAR3 cells) [µM] | IC50 (CDK2:CCNE1) [µM] | IC50 (CDK1:CCNB1) [µM] | IC50 (CDK4:CCND1) [µM] | HLM CLint [4] [µL/min/mg] | solubility at 24 h [5] [µM] | IC50 ([3]; MCF7, 2 h) [µM] | Structure (SMILES) | kinase inhibition profile [2] | IC50 ([3]; MCF7, 2 hours) [µM]
9 | > 30 | 0.699 | 0.186 |  |  |  |  |  |  | CCn1cnc2c(N[C@H]3CCN(S(C)(=O)=O)C3)nc(N[C@@H](CO)C(C)C)nc21 [Example 28, (R)-2-((9-ethyl-6-(((S)-1-(methylsulfonyl)pyrrolidin-3-yl)amino)-9H-purin-2-yl)amino)-3-methylbutan-1-ol] | broadly similar kinase inhibition profiles to Compound 6 | 
10 | > 30 | 2.71 | 6.72 | 0.024 | 0.587 | 4.3 | >300 | 1.79 (≈ 0.858 µg/mL) | 0.253 | CCn1cnc2c(N[C@H]3CCN(S(=O)(=O)CC(F)(F)F)C3)nc(N[C@@H](CO)C(C)C)nc21 [Example 40, (R)-2-((9-ethyl-6-(((S)-1-(2,2,2-trifluoroethylsulfonyl)pyrrolidin-3-yl)amino)-9H-purin-2-yl)amino)-3-methylbutan-1-ol] |  | 
11 | > 30 | 0.746 | 0.327 | 0.019 | 0.663 | 7.7 | 177 | 39.2 (≈ 17.2 µg/mL) | 0.182 | CCn1cnc2c(N[C@H]3CCN(S(=O)(=O)C4CC4)C3)nc(N[C@@H](CO)C(C)C)nc21 [Example 41, (R)-2-((6-(((S)-1-(cyclopropylsulfonyl)pyrrolidin-3-yl)amino)-9-ethyl-9H-purin-2-yl)amino)-3-methylbutan-1-ol] |  | 
12 | > 30 | 0.925 | 0.428 | 0.027 | 0.875 | 4.5 | 196 | 167 (≈ 76.1 µg/mL) | 0.31 | CCn1cnc2c(N[C@H]3CCN(S(=O)(=O)CCOC)C3)nc(N[C@@H](CO)C(C)C)nc21 [Example 42, (R)-2-((9-ethyl-6-(((S)-1-((2-methoxyethyl)sulfonyl)pyrrolidin-3-yl)-amino)-9H-purin-2-yl)amino)-3-methylbutan-1-ol] |  | 
13 | 7.4 | 0.536 | 0.324 | 0.032 | 0.532 | 1.9 | 212 | 35 (≈ 16.5 µg/mL) | 0.157 | CCn1cnc2c(N[C@H]3CCN(S(=O)(=O)NC)C3)nc(N[C@@H]3c4ccccc4C[C@@H]3O)nc21 [Example 51, (S)-3-((9-ethyl-2-(((1R,2S)-2-hydroxy-2,3-dihydro-1H-inden-1-yl)amino)-9H-purin-6-yl)amino)-N-methylpyrrolidine-1-sulfonamide] |  | 
